Drawing on ChEMBL document CHEMBL6134780, “Halogenated retinoid derivatives as dual RARα and RXRα modulators for treating acute promyelocytic leukemia cells” (Eur J Med Chem, 2024), this text covers Activity for 2 molecules.

Test [1] relates to NB-4. Briefly: Cell cycle arrest in human NB4 cells assessed as accumulation of cells at G0/G1 phase at low concentration by DAPI staining based flow cytometric analysis. Type of test: functional. (In general: A flow cytometer gives signals particle by particle.)
The subject of test [2] is NB-4. Briefly: Cell cycle arrest in human NB4 cells assessed as accumulation of cells at G2/M phase at 2 uM incubated for 3 to 12 hrs by DAPI staining based flow cytometric analysis. The test is classed as functional. The settings on record: time 3-12 hrs.
Test [3] concerns NB-4. Briefly: Cell cycle arrest in human NB4 cells assessed as accumulation of cells at S phase at 0.5 uM incubated for 24 hrs by DAPI staining based flow cytometric analysis (reference value: 26 %). Type of test: functional.
Test [4] in a line: Cell cycle arrest in human ATRA-resistant NB4-LR2 cells assessed as accumulation of cells at sub-G1 phase at 2 uM incubated for 24 hrs by DAPI staining based flow cytometric analysis (reference value: 12 %). The test is classed as functional.
The subject of test [5] is NB-4. Briefly: Cell cycle arrest in human NB4 cells assessed as accumulation of cells at sub-G1 phase at 2 uM incubated for 3 hrs by DAPI staining based flow cytometric analysis (reference value: 3 %). Type of test: functional.
The subject of test [6] is NB-4. Briefly: Cell cycle arrest in human NB4 cells assessed as accumulation of cells at G0/G1 phase at 2 uM incubated for 6 hrs by DAPI staining based flow cytometric analysis (reference value: 56 %). Type of test: functional.
In test [7] the test system is NB-4. Briefly: Cell cycle arrest in human NB4 cells assessed as accumulation of cells at S phase at 2 uM incubated for 12 hrs by DAPI staining based flow cytometric analysis (reference value: 20 %). The test is classed as functional.
Test [8] concerns NB-4. Briefly: Cell cycle arrest in human NB4 cells assessed as accumulation of cells at G2/M phase at 2 uM incubated for 12 hrs by DAPI staining based flow cytometric analysis (reference value: 21 %). Type of test: functional.
A further test is filed under the species Homo sapiens. Briefly: Binding affinity to N-terminal His-tagged human RARalpha LBD R276E mutant extracted from Escherichia coli BL21 (DE3) cells by ITC analysis. On the technique in general: In ITC the heat of successive injections is recorded.
Test [9] is described as follows: Cell cycle arrest in human ATRA-resistant NB4-LR2 cells assessed as accumulation of cells at S phase at 2 uM incubated for 3 hrs by DAPI staining based flow cytometric analysis (reference value: 19 %). The test is classed as functional.
Test [10] can be described thus: Cell cycle arrest in human ATRA-resistant NB4-LR2 cells assessed as accumulation of cells at sub-G1 phase at 2 uM incubated for 3 hrs by DAPI staining based flow cytometric analysis (reference value: 9 %). The test is classed as functional.
Test [11] concerns NB-4. Briefly: Cell cycle arrest in human NB4 cells transfected with pLVX-shRNA2-negative control assessed as accumulation of cells at G0/G1 phase at 1 uM incubated for 12 hrs by DAPI staining based flow cytometric analysis (reference value: 46 %). Type of test: functional.
Test [12] has as its system NB-4. Briefly: Cell cycle arrest in human NB4 cells transfected with pLVX-shRNA2-negative control assessed as accumulation of cells at G2/M phase at 1 uM incubated for 12 hrs by DAPI staining based flow cytometric analysis (reference value: 24 %). The test is classed as functional.
The subject of test [13] is NB-4. Briefly: Cell cycle arrest in human NB4 cells transfected with pLVX-shRNA2-negative control assessed as accumulation of cells at sub-G1 phase at 1 uM incubated for 12 hrs by DAPI staining based flow cytometric analysis (reference value: 4 %). Type of test: functional.
Test [14] deals with NB-4. Briefly: Cell cycle arrest in human NB4 cells transfected with pLVX-shRXRalpha plasmid assessed as accumulation of cells at S phase at 1 uM incubated for 12 hrs by DAPI staining based flow cytometric analysis (reference value: 19 %). The test is classed as functional.
Test [15] has as its system NB-4. Briefly: Cell cycle arrest in human NB4 cells transfected with pLVX-shPML-RARalpha plasmid assessed as accumulation of cells at S phase at 1 uM incubated for 12 hrs by DAPI staining based flow cytometric analysis (reference value: 19 %). The test is classed as functional.
The test system of test [16] is NB-4. Briefly: Cell cycle arrest in human NB4 cells transfected with pLVX-shPML-RARalpha plasmid assessed as accumulation of cells at sub-G1 phase at 1 uM incubated for 12 hrs by DAPI staining based flow cytometric analysis (reference value: 21 %). The test is classed as functional.
For a further test, the system named is ATRA-resistant NB4-LR2. Briefly: Induction of apoptosis in human ATRA-resistant NB4-LR2 cells transfected with pLVX-shRXRalpha assessed as increase in cleaved PARP expression at 1 uM incubated for 12 hrs by Western blot analysis. The test is classed as functional, cell-based. For orientation: Immunoblotting shows a protein as a band on a membrane.

Calls of active or inactive are those of the source. No cut-off for these calls is given here.

Regarding `Cc1cc2c(cc1C(=O)/C(Br)=C\c1ccc(C(=O)O)cc1)C(C)(C)CCC2(C)C`, the outcome in the test with NB-4 [1] and in the test on NB-4 [2] was Active.

Regarding `Cc1cc2c(cc1C(=O)/C(Br)=C/c1ccc(C(=O)O)cc1)C(C)(C)CCC2(C)C`, the Activity is 10% with NB-4 [3]; 21% in test [4]; 3% with NB-4 [5]; 30% in the test on NB-4 [6]; 22% in the test on NB-4 [7]; 62% in the test on NB-4 [8]. In addition, the Activity is recorded as 6% in test [9]; 13% in test [10]; 30% with NB-4 [11]; 54% with NB-4 [12]; 7% with NB-4 [13]; 7% in the test with NB-4 [14]. Further, the Activity is recorded as 21% in the test with NB-4 [15] and 24% in the test on NB-4 [16]. The outcome in the test listed under Homo sapiens and with ATRA-resistant NB4-LR2 was inactive.
